Laboratory results taken from patent US12012415B2, “Compositions and methods for the diagnosis, treatment and prevention of neoplastic and neurological disorders” (AscentGene, Inc., priority 2018, dated 2024).
Entries after “also recorded” stand apart in the source; their conditions may differ.

How the values were obtained:
PC4 protein = PC4 protein (Homo sapiens, UniProt P53999); experiment: PC4-DNA binding interference; conditions: for PC4 inhibition: high-throughput screen platform
Method: A number of small molecules were incubated with PC4 protein and DNA binding assessed.

[1] = system: A549 xenograft (NSCLC tumor); experiment: A549 xenograft mice, AG-1031 treatment after inoculation; assay type: in vivo; conditions: 20-40 μg/mice IP every other day, 28 days, after tumor formation
Method: Mice were treated with AG-1031 (20-40 μg/mice) every other day via IP injection after A549 inoculate to the SHO mice treatment and followed for up to 28 days.
Tumor volume was measured during treatment of NSCLC cells with AG-1031 over 28 days.

[2] = system: A549 xenograft (NSCLC formation); experiment: A549 xenograft mice, AG-1031 pre-injection (vaccine); assay type: in vivo
Method: AG-1031 was injected into mice two weeks before injection of tumor cell (see FIG. 9).
Tumor volume was measured for 35 days after administration of AG-1031 to xenograft mice.
IP inject with AG-1031 40 μg/mice, once a week (×2) before A549 cells inoculate to the SHO mice. Assessment of AG-1031 effect on tumor growth in A549 xenograft mice.

[3] = system: glioma (glioblastoma cell line C6); experiment: C6 glioma xenograft model, tumor growth, behaviour and memory; assay type: in vivo, rats; conditions: for ability of new object recognition: rat, in vivo; for recovery of memory loss and loss of other activities: xenograft model of C6 cell line
[4] = system: Rat glioblastoma cell lines C6; experiment: Cell growth of glioblastoma cell line C6; assay type: cell-based; conditions: cell growth rate from number of live cells
Method: (§1) Rat glioblastoma cell lines C6 (A) and human non-small cell lung cancer cell line H841 (B) were grown in the proper medium and treated with different concentration of drug candidate AG-1031 (P) and AG-1503 (#3). Cell growth rate was calculated based on the number of live cells as compared to concentration in M of selected small molecules of the invention (see FIGS. 6A and 6B).

[5] = system: human non-small cell lung cancer cell line H841; experiment: Cell growth of NSCLC cell lines; assay type: cell-based; conditions: cell growth rate from number of live cells
Method: as §1

Row | PC4 inhibition (PC4 protein) | Substance | interference of PC4-DNA binding (PC4 protein; small molecules incubated with PC4 protein, in vitro) | growth of NSCLC tumor [1] | tumor volume ([2]; AG-1031 injected two weeks before tumor cells, control 302.9 mm^3) | tumor volumes ([2]; measured for 35 days after administration) | prevention of tumor formation ([2]; pre-injection of AG-1031 before tumor cells) | ability of new object recognition [3] | glioma growth ([3]; xenograft model from C6 cell line) | recovery of memory loss and loss of other activities [3] | inhibition of growth of glioma cell line C6 [4] | inhibition of growth of NSCLC cell lines [5] | open-field anxiety and activity ([3]; rats with glioma)
1 | strong PC4 inhibitor | 9-methyl (I) and 13-methyl (II) trans-(+)-18-ethenyl-4,4a-dihydro-3,4-bis(methoxycarbonyl)4a,8,14,19-tetramethyl-23H, 25H-benzo[b]porphine-9,13-dipropanoate [AG-1031] | significant interference of PC4-DNA binding; also recorded: specifically inhibits PC4 activity by blocking its double stranded DNA binding ability | inhibits growth of NSCLC tumor cells; also recorded: inhibiting tumor growth | 69.0 mm^3 | substantially reduces tumor volumes | prevents NSCLC formation in vivo; also recorded: effectively prevented tumor formation | showed efficacy to improve ability of new object recognition | significantly inhibited glioma growth | recovery of memory loss and other activity loss | inhibition of rat glioblastoma cell line C6 | inhibition of human non-small cell lung cancer cell line H841; also recorded: inhibited non-small cell lung cancer (NSCLC) cell growth | 
2 | strong PC4 inhibitor | Coproporphyrin III tetramethyl ester [AG-1503] |  |  |  |  |  | showed efficacy to improve ability of new object recognition |  | better activity for recovering memory loss and loss of other activities | inhibition of rat glioblastoma cell line C6; also recorded: specific inhibitory activity on growth of glioma cell line C6 | inhibition of human non-small cell lung cancer cell line H841; also recorded: not significant inhibitory activity on growth of NSCLC cell lines | improvement of anxiety and activity
